# Results as given in article PMC6753678, “Fueling Open Innovation for Malaria Transmission-Blocking Drugs: Hundreds of Molecules Targeting Early Parasite Mosquito Stages” (Frontiers in Microbiology, 2019).
# Where two headings read alike, the source gives them in different places.
# How the values were obtained:
# [1] = system: P. berghei ookinete development; settings: for % inhibition, Replicate A / % inhibition, Replicate B: primary screen at 1 μM
# HepG2 cells = assay: HepG2 cytotoxicity assay; settings: for IC50: read-out: HepG2 cytotoxicity assay IC50, dose response confirmation; for Pb ODA (this manuscript) HepG2 cytoxicity: HepG2 cytotoxicity listed with the Pb ODA data set (this manuscript)
# How it was run: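 HepG2 cells, 2,500 per well in MEM with 10% FBS and 1% NEAA, exposed to compounds for 48 h at 37°C, 5% CO2. Viability read by fluorescence; percent inhibition relative to 50 μM doxorubicin and DMSO controls.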
# [2] = system: 3D7-strain P. falciparum asexual parasites; assay: P. falciparum asexual growth inhibition assay (Pf GIA); assay type: cell-based, Plasmodium falciparum; settings: dose response confirmation; read-out: Pf asexual growth inhibition assays IC50
# How it was run: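 LDH readout: absorbance at 650 nm after 10 min at room temperature with lactate/APAD/NBT/diaphorase mix on thawed plates. Cultures (0.25% parasitemia, 2% hematocrit) were treated 72 h at 37°C in low-oxygen gas. Inhibition was normalised to 50 μM chloroquine and DMSO; n=3 biological replicates.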
# [3] = read-out: Pb Ookinete development assay IC50, dose response confirmation
# [4] = HepG2 values of the three screens unified
# [5] = unified HepG2 value across the three screens
# [6] = read-out: Pb ODA (this manuscript) IC50, P. berghei ookinete development assay, this manuscript
# [7] = read-out: Pb ODA IC50, this manuscript
compound,measurement,setting,value
COc1ccc2nccc([C@@H](O)CN3C4CCC3CC(NCc3ccc5c(n3)NC(=O)CS5)C4)c2n1.Cl (stereo partly shown) [TCMDC-134697],Is compound selective in assay? Pb ODA active?,"[1]; 1: YES, 0: NO",0 (0: NO)
same,"% inhibition, Replicate A",[1],46.01%
same,"% inhibition, Replicate B",[1],53.20%
same,IC50,[1]; [3],4000 nM
same,"HepG2 cytoxicity (Pb ODA, this manuscript)",HepG2 cells,38.90 µM
same,Unified cytotox,HepG2 cells; [4],38.90 µM
same,IC50,HepG2 cells,38900 nM
same,IC50,[2],1060 nM
COCCN(C)c1ccc(C(=O)Nc2ccccc2)cc1NS(=O)(=O)Cc1ccccc1.O=C(O)C(F)(F)F [TCMDC-134575],Is compound selective in assay? Pb ODA active?,"[1]; 1: YES, 0: NO",1 (1: YES)
same,"% inhibition, Replicate A",[1],51.04%
same,"% inhibition, Replicate B",[1],48.31%
same,IC50,[1]; [3],1400 nM
same,IC50,HepG2 cells,100000 nM
same,Unified cytotox,HepG2 cells; [5],100.00 µM
same,IC50,[2],606 nM
Cc1[nH]c(C)c(-c2ccc(OCCCc3ccccn3)cc2)c(=O)c1Br.Cl [TCMDC-135795],Is compound selective in assay? Pb ODA active?,[1],0 (key: 1: YES; 0: NO)
same,"% inhibition, Replicate A",[1],72.29%
same,"% inhibition, Replicate B",[1],89.65%
same,IC50,[1]; [6],590 nM
same,IC50,[1]; [3],594 nM
same,Pb ODA (this manuscript) HepG2 cytoxicity,HepG2 cells,0.17 µM
same,IC50,HepG2 cells,170 nM
same,IC50,[2],6.55 nM
COc1nc2c(CCN3CC[C@H](NCc4ccc5c(c4)NC(=O)CO5)[C@H](O)C3)c(Cl)cnc2cc1F.Cl [TCMDC-135805],Is compound selective in assay? Pb ODA active?,[1],1 (key: 1: YES; 0: NO)
same,"% inhibition, Replicate A",[1],46.55%
same,"% inhibition, Replicate B",[1],63.06%
same,IC50,[1]; [3],770 nM
same,Pb ODA (this manuscript) HepG2 cytoxicity,HepG2 cells,12.02 µM
same,IC50,HepG2 cells,12000 nM
same,IC50,[2],1320 nM
Cc1[nH]c(C)c(-c2ccc(-c3ccc(OC(F)(F)F)cc3)nc2)c(=O)c1Cl [TCMDC-135677],Is compound selective in assay? Pb ODA active?,"[1]; 1: YES, 0: NO",1 (1: YES)
same,"% inhibition, Replicate A",[1],103.64%
same,"% inhibition, Replicate B",[1],93.64%
same,IC50,[1]; [7],270 nM
same,IC50,[1]; [3],265 nM
same,"HepG2 cytoxicity (Pb ODA, this manuscript)",HepG2 cells,23.71 µM
same,Unified cytotox,HepG2 cells; [4],23.71 µM
same,IC50,HepG2 cells,23700 nM
same,IC50,[2],397 nM
O=C(Nc1ccc(OC2CCN(Cc3ccc(F)cc3)C2)c(Cl)c1)c1ccc(F)cc1.O=C(O)C(F)(F)F (stereo not shown) [TCMDC-133763],Is compound selective in assay? Pb ODA active?,"[1]; 1: YES, 0: NO",0 (0: NO)
same,"% inhibition, Replicate A",[1],33.23%
same,"% inhibition, Replicate B",[1],66.02%
same,IC50,[1]; [7],2950 nM
same,IC50,[1]; [3],2950 nM
same,IC50,HepG2 cells,24600 nM
same,Unified cytotox,HepG2 cells; [5],24.55 µM
same,IC50,[2],878 nM
O=C(NC(=O)c1ccccc1O)c1ccccc1O [TCMDC-125868],Is compound selective in assay? Pb ODA active?,"[1]; 1: YES, 0: NO",1 (1: YES)
same,"% inhibition, Replicate A",[1],63.28%
same,"% inhibition, Replicate B",[1],34.36%
same,IC50,[1]; [3],460 nM
same,IC50,HepG2 cells,100000 nM
same,Unified cytotox,HepG2 cells; [5],100.00 µM
same,IC50,[2],2030 nM
CCn1c(C(C)C)cc2c3c(N)nc(N)nc3ccc21 [TCMDC-137856],Is compound selective in assay? Pb ODA active?,"[1]; 1: YES, 0: NO",0 (0: NO)
same,"% inhibition, Replicate A",[1],104.91%
same,"% inhibition, Replicate B",[1],74.96%
same,IC50,[1]; [7],590 nM
same,IC50,[1]; [3],588 nM
same,"HepG2 cytoxicity (Pb ODA, this manuscript)",HepG2 cells,0.00302 µM
same,Unified cytotox,HepG2 cells; [4],0.00302 µM
same,IC50,HepG2 cells,3.02 nM
same,IC50,[2],6.37 nM
Nc1nc(N)c2c(ccc3c2ccn3Cc2ccccc2)n1 [TCMDC-141977],Is compound selective in assay? Pb ODA active?,"[1]; 1: YES, 0: NO",0 (0: NO)
same,"% inhibition, Replicate A",[1],47.17%
same,"% inhibition, Replicate B",[1],65.82%
same,IC50,[1]; [7],290 nM
same,IC50,[1]; [3],286 nM
same,"HepG2 cytoxicity (Pb ODA, this manuscript)",HepG2 cells,0.15 µM
same,Unified cytotox,HepG2 cells; [4],0.15 µM
same,IC50,HepG2 cells,150 nM
same,IC50,[2],1 nM
Cc1nc2nc(N)nc(N)c2c(C)c1Cc1ccccc1.Cl [TCMDC-137670],Is compound selective in assay? Pb ODA active?,[1],0 (key: 1: YES; 0: NO)
same,"% inhibition, Replicate A",[1],51.61%
same,"% inhibition, Replicate B",[1],57.72%
same,IC50,[1]; [6],3020 nM
same,IC50,[1]; [3],3020 nM
same,Pb ODA (this manuscript) HepG2 cytoxicity,HepG2 cells,0.03 µM
same,IC50,HepG2 cells,30 nM
same,IC50,[2],169 nM
O=c1cc(NCCCN(Cc2ccccc2)Cc2ccccc2)[nH]c2ccccc12 [TCMDC-139368],Is compound selective in assay? Pb ODA active?,"[1]; 1: YES, 0: NO",1 (1: YES)
same,"% inhibition, Replicate A",[1],31.96%
same,"% inhibition, Replicate B",[1],60.20%
same,IC50,[1]; [7],2870 nM
same,IC50,[1]; [3],2870 nM
same,IC50,HepG2 cells,33900 nM
same,Unified cytotox,HepG2 cells; [5],33.88 µM
same,IC50,[2],1120 nM
